Values after ≈ are worked out from the molar mass of the structure shown. Blank lines part the entries; values can stand above or below the compound they belong to.
Legend:
[1] = biological target: L-lactate dehydrogenase A chain (Homo sapiens, UniProt P00338); test: Inhibition of human LDH-A by biochemical assay
[2] = Dissociation constant, pKa of the compound; assay type: physicochemical
[3] = Permeability from apical to basolateral side in MDCK cells; assay type: ADME, cell-based, Canis lupus familiaris; conditions: dog
[4] = Permeability from basolateral to apical side in MDCK cells; assay type: ADME, cell-based, Canis lupus familiaris; conditions: dog
[5] = Unbound fraction in human plasma; assay type: ADME, cell-free
[6] = Unbound fraction in rat plasma; assay type: ADME, cell-free
[7] = Kinetic solubility in pH 7.4 buffered aqueous solution; assay type: physicochemical; conditions: read-out: Kinetic_solubility
[8] = Hepatic clearance in human liver microsomes; assay type: ADME
[9] = Hepatic clearance in rat liver microsomes; assay type: ADME
MCF7 [10] = test: Inhibition of lactate production in human MCF7 cells under standard serum conditions; assay type: functional, cell-based
MCF7 [11] = test: Inhibition of lactate production in human MCF7 cells in absence of serum; assay type: functional, cell-based
MCF7 [12] = test: Toxicity in human MCF7 cells assessed as effect on cell viability; assay type: cell-based

SMILES: Cn1ccc(C2CC(O)=C(Sc3ccccc3Cl)C(=O)O2)n1 (stereo not drawn)
IC50 [1]: 35 µM

SMILES: CC(C)C1CC(O)=C(Sc2ccccc2Cl)C(=O)O1 (stereo not drawn)
IC50 [1]: > 100 µM

SMILES: O=C1OC(c2ccccc2)(C2CC2)CC(O)=C1Sc1ccccc1Cl (stereo not drawn)
IC50 [1]: 13 µM

SMILES: O=C1OC2(CCCc3ccccc32)CC(O)=C1Sc1ccccc1Cl (single isomer, unassigned; enantiomer B)
IC50 [1]: 22 µM

SMILES: O=C1NC(c2ccccc2)CC(O)=C1Nc1ccccc1Cl (stereo not drawn)
IC50 [1]: 66 µM | pKa [2]: 6 | Papp A→B [3]: 19 ×10⁻⁶ cm/s | Papp B→A [4]: 30 ×10⁻⁶ cm/s

SMILES: O=C1CC(c2ccccc2)CC(O)=C1Nc1ccccc1Cl (stereo not drawn)
IC50 [1]: 25 µM | pKa [2]: 4.6 | Papp A→B [3]: 4 ×10⁻⁶ cm/s | Papp B→A [4]: 10 ×10⁻⁶ cm/s

SMILES: O=C1CC(c2ccccc2)CC(O)=C1Oc1ccccc1Cl (stereo not drawn)
IC50 [1]: 26 µM | pKa [2]: 3.7 | Papp A→B [3]: 11 ×10⁻⁶ cm/s | Papp B→A [4]: 16 ×10⁻⁶ cm/s | fraction unbound [5]: 0.011 | fraction unbound [6]: 0.012

SMILES: Cc1cccc(C)c1C1CC(O)=C(Sc2ccccc2Cl)C(=O)O1 (stereo not drawn)
IC50 [1]: 17 µM

SMILES: O=C1NC(c2ccccc2)CC(O)=C1Sc1ccccc1Cl (stereo not drawn)
pKa [2]: 4.1 | Papp A→B [3]: 7 ×10⁻⁶ cm/s | Papp B→A [4]: 9 ×10⁻⁶ cm/s | fraction unbound [5]: 0.003 | fraction unbound [6]: 0.006

SMILES: O=C1OC(c2ccc(Cl)cc2)CC(O)=C1Sc1ccccc1Cl (stereo not drawn)
IC50 [1]: 16 µM

SMILES: O=C1OC(C2CCOCC2)CC(O)=C1Sc1ccccc1Cl (stereo not drawn)
IC50 [1]: > 100 µM

SMILES: O=C1OC(C(=O)O)(c2ccccc2)CC(O)=C1Sc1ccccc1Cl (stereo not drawn)
IC50 [1]: 46 µM

SMILES: N#Cc1ccccc1C1CC(O)=C(Sc2ccccc2Cl)C(=O)O1 (stereo not drawn)
IC50 [1]: > 100 µM

SMILES: O=C1OC(c2ccncc2)CC(O)=C1Sc1ccccc1Cl (stereo not drawn)
IC50 [1]: 43 µM

SMILES: CN(C)C(=O)C1(c2ccccc2)CC(O)=C(Sc2ccccc2Cl)C(=O)O1 (stereo not drawn)
IC50 [1]: 22 µM

SMILES: O=C1OC2(CCOc3ccccc32)CC(O)=C1Sc1ccccc1Cl (single isomer, unassigned; enantiomer B)
IC50 [1]: 28 µM

SMILES: CNC(=O)CC1(c2ccccc2)CC(O)=C(Sc2ccccc2Cl)C(=O)O1 (stereo not drawn)
IC50 [1]: 59 µM

SMILES: O=C1OC(c2cccnc2)CC(O)=C1Sc1ccccc1Cl (stereo not drawn)
IC50 [1]: 15 µM

SMILES: O=C1OC(c2cncnc2)CC(O)=C1Sc1ccccc1Cl (stereo not drawn)
IC50 [1]: 73 µM

Further lines, with some results ahead:

IC50 [1]: 3.8 µM
SMILES: CCOc1ccccc1C1CC(O)=C(Sc2ccccc2Cl)C(=O)O1 (stereo not drawn)

IC50 [1]: 9.5 µM
SMILES: N#Cc1cccc(C2CC(O)=C(Sc3ccccc3Cl)C(=O)O2)c1 (stereo not drawn)

IC50 [1]: 11 µM | pKa [2]: 3.4 | Papp A→B [3]: 4 ×10⁻⁶ cm/s | Papp B→A [4]: 6 ×10⁻⁶ cm/s | fraction unbound [5]: 0.006 | fraction unbound [6]: 0.013
SMILES: O=C1OC(c2ccccc2)CC(O)=C1Oc1ccccc1Cl (stereo not drawn)

IC50 [1]: 13 µM | pKa [2]: 4.2 | Papp A→B [3]: 8 ×10⁻⁶ cm/s | Papp B→A [4]: 10 ×10⁻⁶ cm/s
SMILES: O=C1OC(c2ccccc2)CC(O)=C1Nc1ccccc1Cl (stereo not drawn)

IC50 [1]: 4 µM | pKa [2]: 2.4 | Papp A→B [3]: 3 ×10⁻⁶ cm/s | Papp B→A [4]: 5 ×10⁻⁶ cm/s | fraction unbound [5]: 0.008 | fraction unbound [6]: 0.008
SMILES: O=C1OC(c2ccccc2)CC(O)=C1Sc1ccccc1Cl (stereo not drawn)

IC50 [1]: 5.5 µM
SMILES: O=C1OC(c2ccccc2Cl)CC(O)=C1Sc1ccccc1Cl (stereo not drawn)

IC50 [1]: 5.6 µM
SMILES: O=C1OC(CO)(c2ccccc2)CC(O)=C1Sc1ccccc1Cl (stereo not drawn)

IC50 [1]: 4 µM | pKa [2]: 3 | Papp A→B [3]: 12 ×10⁻⁶ cm/s | Papp B→A [4]: 18 ×10⁻⁶ cm/s
SMILES: O=C1CC(c2ccccc2)CC(O)=C1Sc1ccccc1Cl (stereo not drawn)

IC50 [1]: 3.5 µM
SMILES: O=C1OC(c2ccccn2)CC(O)=C1Sc1ccccc1Cl (stereo not drawn)

IC50 [1]: 6.6 µM
SMILES: NC(=O)C1(c2ccccc2)CC(O)=C(Sc2ccccc2Cl)C(=O)O1 (stereo not drawn)

IC50 [1]: 3.3 µM
SMILES: O=C1OC2(CCOc3ccccc32)CC(O)=C1Sc1ccccc1Cl (single isomer, unassigned; enantiomer A)

IC50 [1]: 2.1 µM
SMILES: O=C1OC2(CCCc3ccccc32)CC(O)=C1Sc1ccccc1Cl (single isomer, unassigned; enantiomer A)

IC50 [1]: 2.2 µM
SMILES: CCOc1cccc(C2CC(O)=C(Sc3ccccc3Cl)C(=O)O2)c1 (stereo not drawn)

IC50 [1]: 7.4 µM
SMILES: CNC(=O)C1(c2ccccc2)CC(O)=C(Sc2ccccc2Cl)C(=O)O1 (stereo not drawn)

IC50 [1]: 0.03 µM | Papp A→B [3]: 1.6 ×10⁻⁶ cm/s | fraction unbound [5]: < 0.01 | fraction unbound [6]: < 0.01 | solubility kinetic [7]: 169 µM (≈ 73.5 µg/mL) | CLhep predicted [8]: 20 mL/min/kg | CLhep predicted [9]: 41 mL/min/kg | EC50 (MCF7 [10]): > 50 µM | EC50 (MCF7 [11]): 32 µM
SMILES: O=C1OC2(CCc3c(-c4ccccc4)cccc32)CC(O)=C1Sc1ccccc1Cl (single isomer, unassigned; enantiomer A)
Activity (MCF7 [12]): Non-toxic

IC50 [1]: 5 µM
SMILES: O=C1OC(c2c(Cl)cccc2Cl)CC(O)=C1Sc1ccccc1Cl (stereo not drawn)

IC50 [1]: 4.1 µM
SMILES: CC1(c2ccccc2)CC(O)=C(Sc2ccccc2Cl)C(=O)O1 (stereo not drawn)

IC50 [1]: 0.36 µM
SMILES: O=C1OC2(CCc3ccccc32)CC(O)=C1Sc1ccccc1Cl (single isomer, unassigned; enantiomer A)

IC50 [1]: 3.9 µM
SMILES: O=C1OC(c2cccc(Cl)c2)CC(O)=C1Sc1ccccc1Cl (stereo not drawn)

IC50 [1]: 0.35 µM
SMILES: O=C1OC2(CCc3c(Br)cccc32)CC(O)=C1Sc1ccccc1Cl (single isomer, unassigned; enantiomer A)

IC50 [1]: 11 µM | pKa [2]: 5.3 | Papp A→B [3]: 11 ×10⁻⁶ cm/s | Papp B→A [4]: 12 ×10⁻⁶ cm/s | fraction unbound [5]: 0.022 | fraction unbound [6]: 0.023
SMILES: O=C1NC(c2ccccc2)CC(O)=C1Oc1ccccc1Cl (stereo not drawn)

IC50 [1]: 2.1 µM
SMILES: O=C1OC2(CCc3c(Br)cccc32)CC(O)=C1Sc1ccccc1Cl (single isomer, unassigned)

IC50 [1]: 2.6 µM
SMILES: O=C1OC2(CCc3ccccc32)CC(O)=C1Sc1ccccc1Cl (single isomer, unassigned; enantiomer B)

IC50 [1]: 0.61 µM
SMILES: O=C1OC2(CCc3c(-c4ccccc4)cccc32)CC(O)=C1Sc1ccccc1Cl (single isomer, unassigned; enantiomer b)

From ChEMBL document CHEMBL3351509, “Identification of 3,6-disubstituted dihydropyrones as inhibitors of human lactate dehydrogenase” (Bioorg Med Chem Lett, 2014)
